Experimental data from EP2390266A1, “3-D Conformation of GLIC and allosteric modulation thereof” (priority 2010, dated 2011).

Tests used:
GLIC = molecular target: T1, GLIC (Gloeobacter violaceus, UniProt Q7NDN8); conditions: cited from earlier work; for inhibition of GLIC: at clinical concentration; for nH: Hill number of the inhibition curve; for nH / currents inhibited by up to: EC20 concentration (pH 4.7-5.3) of protons; for IC50: currents elicited by an EC20 concentration (pH 4.7-5.3) of protons; for currents inhibited by up to: maximal inhibition
T1 sequence (Q7NDN8 44-359): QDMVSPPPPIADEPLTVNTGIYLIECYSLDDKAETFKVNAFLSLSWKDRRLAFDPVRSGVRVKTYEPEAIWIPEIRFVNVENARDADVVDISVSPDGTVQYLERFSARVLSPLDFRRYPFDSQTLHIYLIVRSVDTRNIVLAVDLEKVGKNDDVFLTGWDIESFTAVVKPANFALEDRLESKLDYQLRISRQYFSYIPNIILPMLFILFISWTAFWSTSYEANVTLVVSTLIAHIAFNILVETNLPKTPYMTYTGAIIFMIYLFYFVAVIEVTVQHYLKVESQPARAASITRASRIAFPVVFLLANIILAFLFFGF

I202Y mutated GLIC = assay: Two-electrode voltage clamp on oocytes, mutant GLIC; assay type: cell-based, Gloebacter violaceus
Procedure: (§1) • Figure 3A. […] Xenopus laevis oocytes, holding potential -60 to -40 mV.
(§2) For desflurane inhibition (figures 3C-3F), full dose-inhibition curves were measured at pH20.

T255A mutated GLIC = assay: as above; assay type: cell-based, Gloebacter violaceus
Procedure: as §1, §2

I202W mutated GLIC = assay: as above; assay type: cell-based, Gloebacter violaceus
Procedure: as §1, §2

I202A mutated GLIC = assay: as above; assay type: cell-based, Gloebacter violaceus
Procedure: as §1, §2

V242M mutated GLIC = assay: as above; assay type: cell-based, Gloebacter violaceus
Procedure: as §1, §2

I258A mutated GLIC = conditions: activation at pH20 (pH 5.5 to 5.8)
Procedure: (§3) We monitored the inhibitory action of both anesthetics by two-electrode voltage clamp on oocytes expressing the GLIC channel. A typical experiment consists at activating the GLIC channel by an EC20 concentration of protons for 5 min, a period during which anesthetics are applied for 1min, 1 min after the onset of proton application.
(§4) Key residues contacting or neighboring propofol and desflurane in the 3D structure were mutated to alanine, or to more bulky residues in order to decrease the size of the binding pocket (mutants I202 A,Y,W, V242 A,M,W, T255A and I258A,M). […] Mutants were first characterized by their trace currents and proton dose-response curve (figures 3C-3F).

V242A mutated GLIC = tested on: V242A mutated GLIC
Procedure: as §3, §4

I258M mutated GLIC = conditions: activation at pH20 (pH 5.5 to 5.8)
Procedure: as §3, §4

wild-type GLIC = wild-type GLIC (Gloeobacter violaceus, UniProt Q7NDN8); assay: cell-based
Procedure: as §3

[1] = increased sensitivity for propofol
[2] = activation at pH20 (pH 6.5-6.8), 10 µM propofol (Fig. 3C)
[3] = activation at pH20 (pH 5.5 to 5.8), 10 µM propofol (Fig. 3C)

## CC(O)CC(=O)O (stereo not shown) [3-hydroxybutyric acid]
GLIC
  inhibition of GLIC: robustly inhibited

## FC(F)OC(F)C(F)(F)F (stereo not shown) [desflurane, 2-(difluoromethoxy)-1,1,1,2-tetrafluoro-ethane]
GLIC
  nH: 0.24
  inhibition of GLIC: robustly inhibited
  IC50: 10 µM
  currents inhibited by up to: up to 90%
I202Y mutated GLIC; at pH20
  desflurane inhibition, full dose-inhibition curve compared with WT: did not alter significantly
T255A mutated GLIC; at pH20, decreased sensitivity toward desflurane
  desflurane inhibition, full dose-inhibition curve compared with WT: dramatic shift of the curve to the right
I202W mutated GLIC; at pH20
  desflurane inhibition, full dose-inhibition curve compared with WT: did not alter significantly
I202A mutated GLIC; at pH20
  desflurane inhibition, full dose-inhibition curve compared with WT: did not alter significantly
V242M mutated GLIC; at pH20
  desflurane inhibition, full dose-inhibition curve compared with WT: did not alter significantly

## CCOC(=O)c1cncn1[C@H](C)c1ccccc1 [etomidate, ethyl 3-[(1R)-1-phenylethyl]imidazole-4-carboxylate]
GLIC
  inhibition of GLIC: robustly inhibited

## CC(C)c1cccc(C(C)C)c1O [propofol, 2,6-diisopropylphenol]
I258A mutated GLIC
  propofol inhibition compared with WT: not significantly different from WT
V242A mutated GLIC; activation at pH20 (pH 5.5 to 5.8)
  propofol inhibition compared with WT: more inhibited
V242A mutated GLIC; [1]
  propofol dose-inhibition curve compared with wt: shift of the dose-inhibition curve toward the left
I258M mutated GLIC
  propofol inhibition compared with WT: not significantly different from WT
wild-type GLIC; higher proton concentration (at the EC50)
  inhibition of GLIC: no longer observed
wild-type GLIC; read-out: inhibition of GLIC
  inhibition at 10 µM: 28%
GLIC
  nH: 0.39
  inhibition of GLIC: robustly inhibited
  IC50: 0.6 µM
  currents inhibited by up to: up to 90%
I202Y mutated GLIC; [2]
  propofol inhibition compared with WT: not significantly different from WT
T255A mutated GLIC; [2]
  propofol inhibition compared with WT: more inhibited
T255A mutated GLIC; [1]
  propofol dose-inhibition curve compared with wt: shift of the dose-inhibition curve toward the left
I202W mutated GLIC; [3]
  propofol inhibition compared with WT: not significantly different from WT
I202A mutated GLIC; [3]
  propofol inhibition compared with WT: not significantly different from WT
V242M mutated GLIC; [3]
  propofol inhibition compared with WT: more inhibited
V242M mutated GLIC; [1]
  propofol dose-inhibition curve compared with wt: shift of the dose-inhibition curve toward the left
